Publication PMC8312956, “T. cruzi DNA polymerase beta (Tcpolβ) is phosphorylated in vitro by CK1, CK2 and TcAUK1 leading to the potentiation of its DNA synthesis activity” (PLoS Neglected Tropical Diseases, 2021)

How the values were obtained:
[1] = target: T1, TcCK2α (Trypanosoma cruzi, UniProt Q4E340); test: […]-ATP phosphorylation of pCK2β, SDS-PAGE autoradiography; assay type: biochemical
T1 construct: gene Tc00.1047053508741.320; recombinant TcCK2α in hybrid CK2 holoenzyme; with S. pombe CK2β (pCK2β)

[2] = target: T2, TcAUK1 (Trypanosoma cruzi, UniProt Q4DKE3); test: […]-ATP phosphorylation of Tcpolβ, SDS-PAGE autoradiography; over […] decrease at […]; assay type: biochemical
T2 construct: gene Tc00.1047053508817.80; recombinant, expressed in E. coli (pET15b), renatured and purified
T2 sequence (Q4DKE3 entry or part of it): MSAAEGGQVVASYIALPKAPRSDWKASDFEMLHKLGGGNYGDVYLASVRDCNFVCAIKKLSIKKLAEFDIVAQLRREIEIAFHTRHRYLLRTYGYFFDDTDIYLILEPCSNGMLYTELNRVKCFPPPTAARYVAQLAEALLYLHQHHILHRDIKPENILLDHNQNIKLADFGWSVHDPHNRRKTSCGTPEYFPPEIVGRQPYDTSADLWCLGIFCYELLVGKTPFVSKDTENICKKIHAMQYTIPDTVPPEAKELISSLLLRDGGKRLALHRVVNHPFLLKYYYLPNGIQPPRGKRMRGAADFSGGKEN

T1 sequence (P40232 whole entry): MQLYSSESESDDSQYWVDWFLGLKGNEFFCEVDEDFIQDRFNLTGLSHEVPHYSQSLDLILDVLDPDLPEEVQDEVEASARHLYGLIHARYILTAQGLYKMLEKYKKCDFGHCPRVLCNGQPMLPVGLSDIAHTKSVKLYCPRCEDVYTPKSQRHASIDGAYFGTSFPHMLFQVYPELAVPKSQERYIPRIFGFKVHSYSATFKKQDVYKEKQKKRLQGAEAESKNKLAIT
T1 sequence (Q4E340 entry or part of it): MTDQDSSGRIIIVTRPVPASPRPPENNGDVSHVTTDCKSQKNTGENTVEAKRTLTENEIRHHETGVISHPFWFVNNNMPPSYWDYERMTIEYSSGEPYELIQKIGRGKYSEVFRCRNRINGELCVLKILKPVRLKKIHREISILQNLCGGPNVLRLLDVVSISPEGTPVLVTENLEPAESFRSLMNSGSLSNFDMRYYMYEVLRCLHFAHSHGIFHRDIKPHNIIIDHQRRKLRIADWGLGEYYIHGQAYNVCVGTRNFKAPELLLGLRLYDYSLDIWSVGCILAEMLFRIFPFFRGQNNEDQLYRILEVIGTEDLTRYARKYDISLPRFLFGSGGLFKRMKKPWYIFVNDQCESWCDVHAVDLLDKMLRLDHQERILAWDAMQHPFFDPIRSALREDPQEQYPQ

Row | Structure (SMILES) | IC50 [1] | 32P-ATP phosphorylation of Tcpolβ, SDS-PAGE autoradiography; over 60% decrease a [2]
1 | Brc1c(Br)c(Br)c2[nH]nnc2c1Br [TBB, 4,5,6,7-tetrabromobenzotriazole] | 500 to 1000 nM | –
2 | O=C(Nc1cccc(Cl)c1)Nc1ncc(CCNc2ncnc3ccsc23)s1 [SNS314] | – | ~ 48 nM
